The text below walks through data of ChEMBL document CHEMBL1201862, “PubChem BioAssay data set” (2004).

Test systems include A549; HOP-92; CCRF-CEM; CAKI-1; SNB-19; DU-145; SR; 786-0; T47D; HT-29; SK-MEL-2; NCI-H226; OVCAR-5; U-251; UACC-257; SF-295; MDA-MB-435; SN12C; K562; SK-OV-3.
Common to all, as to test: DTP human tumour cell line panel, 48 h

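Method: 48-hour compound exposure of cells in 96-well plates, five concentrations, linear interpolation of endpoints. At the GI50, growth is halved.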 Active and inactive are the calls of the source. Rule as the data show it: active = GI50 up to about 1.1 µM and inactive = higher.

Consider `C/C(=N\NC(=O)N/N=C(\C)c1ccccn1)c1ccccn1`, for which the GI50 in the assay on A549 is 4.88 µM (inactive); in the assay with HOP-92, 0.279 µM (active); in the assay on CCRF-CEM, 9.18 µM (inactive); with CAKI-1, 38.8 µM (inactive); with SNB-19, 2.19 µM (inactive); in the assay on DU-145, 43.5 µM (inactive). The GI50 in the assay on SR is 0.394 µM (active); in the assay with 786-0 it was 2.66 µM (inactive); with T47D it was 35.2 µM (inactive); in the assay on HT-29, < 0.01 µM (active); in the assay on SK-MEL-2 it was > 100 µM (inactive); in the assay on NCI-H226, 31 µM (inactive). The GI50 in the assay on OVCAR-5 is > 52.6 µM (inactive); with U-251, 20.3 µM (inactive); with UACC-257, > 100 µM (inactive); with SF-295, 0.308 µM (active); with MDA-MB-435, 0.0526 µM (active); in the assay with SN12C, 2.16 µM (inactive). Besides, the 50% growth inhibitory concentration (GI50) in the assay with K562 is 0.118 µM (active); with SK-OV-3, > 100 µM (inactive).

Take `Cc1ccc2nc(NC(=O)/C(Cc3nc4ccc(Cl)cc4nc3O)=N\NC(C)(C)C)sc2c1`: the GI50 with A549 is > 100 µM (inactive); with HOP-92, > 100 µM (inactive); with CCRF-CEM, > 100 µM (inactive); with CAKI-1 it was 41.8 µM (inactive); in the assay on SNB-19, > 100 µM (inactive); with DU-145, > 100 µM (inactive). Besides, the GI50 in the assay on SR was > 100 µM (inactive); in the assay on 786-0, > 100 µM (inactive); with T47D, > 100 µM (inactive); in the assay with HT-29, > 100 µM (inactive); with SK-MEL-2, > 100 µM (inactive); in the assay with NCI-H226, 9.59 µM (inactive). For the same molecule, the GI50 with OVCAR-5 is > 100 µM (inactive); with U-251 it was > 100 µM (inactive); with UACC-257, > 100 µM (inactive); with SF-295, 36.1 µM (inactive); in the assay on MDA-MB-435, > 100 µM (inactive); in the assay on SN12C, > 100 µM (inactive). Also, the GI50 with K562 and in the assay on SK-OV-3 was > 100 µM (inactive) in each case.

On to `Nc1nc(Cl)cc(NCC2(CO)CC(c3ccccc3)C2)n1` (stereo not given), for which the GI50 with A549 was 26.2 µM (inactive); in the assay with HOP-92, 22.3 µM (inactive); in the assay on CCRF-CEM, 27 µM (inactive); in the assay on CAKI-1 it was > 100 µM (inactive); in the assay with SNB-19 it was 88.7 µM (inactive); in the assay with DU-145 it was > 100 µM (inactive). In addition, the GI50 is 7.59 µM (inactive) in the assay on SR; > 100 µM (inactive) with 786-0; 11.4 µM (inactive) in the assay with T47D; 30 µM (inactive) in the assay on HT-29; 62.4 µM (inactive) with SK-MEL-2; 37.7 µM (inactive) in the assay with NCI-H226. For the same molecule, the GI50 in the assay on OVCAR-5 is > 100 µM (inactive); with U-251, 50.7 µM (inactive); in the assay on UACC-257, 20.5 µM (inactive); with SF-295, > 100 µM (inactive); with MDA-MB-435 it was 29.9 µM (inactive); with SN12C, 13.8 µM (inactive). The figures for the GI50 in the assay with K562 and in the assay with SK-OV-3 were 9.57 µM (inactive) and 54.2 µM (inactive), respectively.

As to `[N-]=[N+]=NC1C(O)C(CO)OC1n1ccc(=O)[nH]c1=O` (stereo not given), the GI50 with A549, in the assay with HOP-92, with CCRF-CEM, in the assay with CAKI-1, in the assay with SNB-19 and with DU-145 was > 875 µM (inactive) in each case. Moreover, the GI50 with SR, with 786-0, in the assay on T47D, in the assay on HT-29, in the assay with SK-MEL-2 and in the assay on NCI-H226 was > 875 µM (inactive) in each case. For the same molecule, the GI50 in the assay on OVCAR-5, in the assay with U-251, with UACC-257, in the assay with SF-295, in the assay with MDA-MB-435 and with SN12C was > 875 µM (inactive) throughout. For the same molecule, the GI50 in the assay with K562 and with SK-OV-3 was > 875 µM (inactive) throughout.

As for `COc1ccc(Cc2cc(OC)c(OC)c(OC)c2)cc1O`, the GI50 with A549 was 0.119 µM (active); in the assay on HOP-92 it was 0.119 µM (active); in the assay on CCRF-CEM, 0.0177 µM (active); in the assay on CAKI-1, > 24.7 µM (inactive); in the assay on SNB-19 it was 0.0352 µM (active); in the assay on DU-145, 0.0231 µM (active). Further, the concentration for 50% growth inhibition (GI50) in the assay on SR was 0.0194 µM (active); in the assay with 786-0 it was 0.116 µM (active); in the assay with T47D it was 53.8 µM (inactive); in the assay with HT-29, 14.3 µM (inactive); with SK-MEL-2, 0.0702 µM (active); in the assay on NCI-H226, 36.7 µM (inactive). Moreover, the GI50 in the assay on OVCAR-5 was 68.1 µM (inactive); in the assay on U-251, 0.0982 µM (active); in the assay with UACC-257, 3.95 µM (inactive); in the assay on SF-295, 0.286 µM (active); in the assay on MDA-MB-435, < 0.01 µM (active); in the assay on SN12C it was 0.173 µM (active). Besides, the GI50 was 0.0161 µM (active) in the assay on K562 and 0.274 µM (active) with SK-OV-3.

The term GI50 denotes the concentration at which growth is held to half of that of the control.
